Source: ChEMBL document CHEMBL4354827, “Discovery of Novel, Potent, Brain-Permeable, and Orally Efficacious Positive Allosteric Modulator of α7 Nicotinic Acetylcholine Receptor [4-(5-(4-Chlorophenyl)-4-methyl-2-propionylthiophen-3-yl)benzenesulfonamide]: Structure-Activity Relationship and Preclinical Characterization” (J Med Chem, 2020)

What was measured:
[1] = Drug metabolism in dog liver microsomes assessed as metabolic rate at 1 uM preincubated for 5 mins followed by NADPH addition after 30 mins by LC-MS/MS analysis; assay type: ADME, Canis lupus familiaris, Microsome; conditions: 0.5 h
[2] = Metabolic stability in rat liver microsomes assessed as compound remaining at 1 uM preincubated for 5 mins followed by NADPH addition and measured after 30 mins by LC-MS/MS analysis; assay type: ADME, Microsome; conditions: read-out: Stability
[3] = Metabolic stability in dog liver microsomes assessed as compound remaining at 1 uM preincubated for 5 mins followed by NADPH addition and measured after 30 mins by LC-MS/MS analysis; assay type: ADME, Canis lupus familiaris, Microsome; conditions: read-out: Stability
[4] = Metabolic stability in monkey liver microsomes assessed as compound remaining at 1 uM preincubated for 5 mins followed by NADPH addition and measured after 30 mins by LC-MS/MS analysis; assay type: ADME, Macaca mulatta, Microsome; conditions: rhesus monkey, read-out: Stability
[5] = Metabolic stability in human pooled liver microsomes assessed as compound remaining at 1 uM preincubated for 5 mins followed by NADPH addition and measured after 30 mins by LC-MS/MS analysis; assay type: ADME, Microsome; conditions: read-out: Stability
[6] = Protein binding in mouse plasma assessed as unbound fraction at 5 uM incubated for 16 hrs under shaking condition by LC/MS/MS based rapid equilibrium dialysis method; assay type: ADME, cell-free
[7] = Protein binding in dog plasma at 5 uM incubated for 16 hrs under shaking condition by LC/MS/MS based rapid equilibrium dialysis method; assay type: ADME, cell-free, Canis lupus familiaris; conditions: read-out: PPB (converted)
[8] = AUClast in BALB/c mouse at 10 mg/kg, po after 0.25 to 144 hrs by LC-MS/MS analysis; assay type: ADME, organism-based; parameters: dose 10 mg/kg, time upper 144 hr, time lower 0.25 hr, route oral; conditions: in vivo
[9] = Cmax in Wistar rat at 10 mg/kg, po after 0.25 to 144 hrs by LC-MS/MS analysis; assay type: ADME, organism-based; parameters: dose 10 mg/kg, route oral; conditions: in vivo
[10] = Cmax in BALB/c mouse at 1 mg/kg, iv after 0.083 to 144 hrs by LC-MS/MS analysis; assay type: ADME, organism-based; parameters: dose 1 mg/kg, route intravenous; conditions: in vivo
[11] = Tmax in Wistar rat at 10 mg/kg, po after 0.25 to 144 hrs by LC-MS/MS analysis; assay type: ADME, organism-based; conditions: in vivo
[12] = Half life in Wistar rat at 1 mg/kg, iv after 0.083 to 144 hrs by LC-MS/MS analysis; assay type: ADME, organism-based; conditions: in vivo
[13] = Brain to plasma permeability coefficient, Kp in Wistar rat at 10 mg/kg, po after 48 hrs by LC-MS/MS analysis; assay type: ADME, organism-based
[14] = Unbound brain-to-plasma concentration ratio in Wistar rat at 10 mg/kg, po after 8 hrs by LC-MS/MS analysis; assay type: ADME, organism-based; conditions: read-out: K(p,uu,brain)
[15] = AUCt in Wistar rat brain at 10 mg/kg, po after 1 to 144 hrs by LC-MS/MS analysis; assay type: ADME, organism-based
Cytochrome P450 2D6 = Cytochrome P450 2D6 (Homo sapiens, UniProt P10635); assay: Inhibition of CYP2D6 (unknown origin) up to 10 uM; assay type: ADME
Rattus norvegicus [16] = assay: Memory enhancement effect in time-delay induced Wistar rat model of amnesia assessed as exploration time for familiar object in retention trial at 3 mg/kg, po administered as single dose and measured on day 9 by novel object recognition test (reference value: 13.05 sec); assay type: functional
Rattus norvegicus [17] = assay: Memory enhancement effect in time-delay induced Wistar rat model of amnesia assessed as exploration time for object2 in acquisition trial at 1 mg/kg, po administered as single dose and measured on day 8 by novel object recognition test (reference value: 16.33 sec); assay type: functional
Rattus norvegicus [18] = assay: Memory enhancement effect in scopolamine-induced Wistar rat model of amnesia assessed as increase in exploration time for novel object in retention trial at 0.5 mg/kg, po administered as single dose and measured on day 9 by novel object recognition test (reference value: 12.09 sec); assay type: functional
Rattus norvegicus [19] = assay: Memory enhancement effect in time-delay induced Wistar rat model of amnesia assessed as exploration time for novel object in retention trial at 0.15 mg/kg, po for 7 days and measured on day 8 by novel object recognition test (reference value: 15.37 sec); assay type: functional
Rattus norvegicus [20] = assay: Memory enhancement effect in time-delay induced Wistar rat model of amnesia assessed as exploration time for object2 in acquisition trial at 0.5 mg/kg, po for 7 days and measured on day 8 by novel object recognition test (reference value: 11.76 sec); assay type: functional
[21] = Drug level in Wistar rat plasma at 0.05 mg/kg, po; assay type: ADME, organism-based; conditions: in vivo
[22] = Drug level in Wistar rat plasma at 0.5 mg/kg, po; assay type: ADME, organism-based; conditions: in vivo
Rattus norvegicus [23] = assay: Memory enhancement effect in scopolamine-induced Wistar rat model of amnesia assessed as exploration time for familiar object in retention trial at 0.05 mg/kg, po for 7 days and measured on day 8 by novel object recognition test (reference value: 8.59 sec); assay type: functional
Rattus norvegicus [24] = assay: Memory enhancement effect in scopolamine-induced Wistar rat model of amnesia assessed as exploration time for familiar object in retention trial at 0.15 mg/kg, po for 7 days and measured on day 8 by novel object recognition test (reference value: 8.59 sec); assay type: functional
Rattus norvegicus [25] = assay: Improvement in social recognition scopolamine-induced Sprague-Dawley rat model of amnesia assessed as reduction in recognition index 3 mg/kg, po administered as single dose prior to 1 hr training and measured after 30 mins (reference value: 0.9); assay type: functional
Rattus norvegicus [26] = assay: Improvement in social recognition scopolamine-induced Sprague-Dawley rat model of amnesia assessed as reduction in recognition index at 1 mg/kg, po administered as single dose prior to 1 hr training and measured after 30 mins (reference value: 0.9); assay type: functional
Rattus norvegicus [27] = assay: Improvement in social recognition time delay-induced Sprague-Dawley rat model of amnesia assessed as increase in reduction in social investigation time at 0.05 mg/kg, po for 7 days measured on day 9 (reference value: -0.5%); assay type: functional; parameters: scale not given: the % may be the effect or the level left
Rattus norvegicus [28] = assay: Improvement in social recognition time delay-induced Sprague-Dawley rat model of amnesia assessed as reduction in recognition index at 0.15 mg/kg, po for 7 days and measured on day 9 (reference value: 1.05); assay type: functional
[29] = Drug level in Sprague-Dawley rat plasma at 0.05 mg/kg, po for 7 days; assay type: ADME, organism-based
Rattus norvegicus [30] = assay: Improvement in social recognition scopolamine-induced Sprague-Dawley rat model of amnesia assessed as reduction in recognition index at 0.50 mg/kg, po for 7 days measured after 24 hrs (reference value: 0.93); assay type: functional

Chain of Cytochrome P450 2D6 (P10635 whole entry): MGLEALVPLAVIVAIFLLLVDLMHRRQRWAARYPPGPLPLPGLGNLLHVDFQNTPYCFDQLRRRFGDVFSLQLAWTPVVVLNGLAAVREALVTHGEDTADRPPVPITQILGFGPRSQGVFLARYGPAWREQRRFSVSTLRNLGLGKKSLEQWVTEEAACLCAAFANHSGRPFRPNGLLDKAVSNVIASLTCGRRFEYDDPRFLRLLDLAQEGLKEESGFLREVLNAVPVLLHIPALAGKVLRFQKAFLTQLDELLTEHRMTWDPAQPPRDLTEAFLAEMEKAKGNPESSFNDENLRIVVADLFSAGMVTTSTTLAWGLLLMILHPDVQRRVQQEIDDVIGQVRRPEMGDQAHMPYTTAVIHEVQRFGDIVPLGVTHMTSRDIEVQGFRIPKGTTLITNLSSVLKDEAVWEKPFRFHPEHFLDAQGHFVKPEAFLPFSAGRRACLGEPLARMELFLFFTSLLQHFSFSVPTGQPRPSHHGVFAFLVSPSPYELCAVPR

CCC(=O)c1sc(-c2ccc(Cl)cc2)c(C)c1-c1ccc(S(N)(=O)=O)cc1
Drug metabolism [1]: 0.01 nmol/min/mg
remaining at 0.5 h, 1 µM [2]: 94%
remaining at 0.5 h, 1 µM [3]: 93%
remaining at 0.5 h, 1 µM [4]: 79%
remaining at 0.5 h, 1 µM [5]: 90%
fraction unbound at 16 h, 5 µM [6]: 0.0116
fraction unbound at 16 h, 5 µM [7]: 0.0031
AUC(0-t) [8]: 63 µM·h
Cmax [9]: 4.1 µM
Cmax [10]: 0.9 µM
Tmax [11]: 5.2 h
half-life [12]: 45 h
Kp at 48 h [13]: 9.52
Kp uu at 8 h [14]: 0.93
AUC(0-t) [15]: 301 µM·h
inhibition (INH) (Cytochrome P450 2D6): Not Active
Time (Rattus norvegicus [16]): 8.92 s
Time (Rattus norvegicus [17]): 23.96 s
Time (Rattus norvegicus [18]): 15.06 s
Time (Rattus norvegicus [19]): 7.15 s
Time (Rattus norvegicus [20]): 12.42 s
concentration [21]: 0.04 µM
concentration [22]: 0.27 µM
Time (Rattus norvegicus [23]): 8.03 s
Time (Rattus norvegicus [24]): 4.86 s
Activity_index (Rattus norvegicus [25]): 0.45
Activity_index (Rattus norvegicus [26]): 0.52
Activity (Rattus norvegicus [27]): 18.97%
Activity_index (Rattus norvegicus [28]): 0.56
concentration at 168 h [29]: 0.13 µM
Activity_index (Rattus norvegicus [30]): 0.75
